Earlier results in patent publication US9744157B2, “Combinations of solifenacin and salivary stimulants for the treatment of overactive bladder” (TheraVida, Inc., priority 2011, dated 2017).

Test system: saliva output
Settings: 5 mg of pilocarpine

Compound: CC[C@@H]1C(=O)OC[C@@H]1Cc1cncn1C [pilocarpine]
- time of maximum saliva output after administration: about 30 minutes
